Laboratory results published in patent publication US20150031622A1, “RHOGEF12 IS A THERAPEUTIC TARGET FOR THE TREATMENT OF HEART FAILURE” (MAX-PLANCK-GESELLSCHAFT ZUR FÖRDERUNG DER WISSENSCHAFTEN …, priority 2012, published 2015).
Bridges are numbered along the chain shown (N, C = ends). Where no end group is shown, it is not given here.

System: neonatal rat ventricular myocytes (NRVM)
Assay: qRT-PCR of hypertrophy-specific genes (ANP, β-MHC) in NRVM
Assay type: cell-based
Settings: NRVM control cells
Procedure: Neonatal rat ventricular myocytes (NRVM) were isolated from 1-2 days old rat neonates using a kit from Worthington Biochemical Corporation (Lakewood, N.J., USA). After digestion, cells were pre-plated for 1 h to remove nonmyocytes, plated on cell culture dishes pre-coated with 1% gelatin (Sigma-Aldrich) and then cultured in Dulbecco's modified Eagle's medium (DMEM) with 10% fetal bovine serum. The following day, cells were cultured in serum-free DMEM medium containing 100 μM 5-bromo 2′-deoxy-uridine (BrdU; Sigma-Aldrich). NRVM were transfected with siRNAs (Qiagen, Chatsworth, Calif., USA or Sigma-Aldrich) using Lipofectamine RNAiMAX (Invitrogen, San Diego, Calif., USA) 3 h and 20 h after plating according to the manufacturer's instructions. […]
RNA was extracted from left ventricles with the RNA fibrosis tissue kit (Qiagen) and from NRVM or adult mouse cardiomyocytes with the RNeasy Mini kit (Qiagen) according to the manufacture's protocol. […] Reverse transcriptase (RT) reaction was performed using the QuantiTect Reverse Transcription kit (Qiagen). Quantitative RT-PCR was performed using the LightCycler 480 Probe Master or LightCycler 480 SYBR Green Master (Roche). […]
Primers for the analysis of RhoGEF expression were used as described previously^40. Data are in all cases presented after normalization to GAPDH, in some cases the relative change compared to basal conditions was calculated.

endothelin-1 (CSCSSLMDKECVYFCHLDIIW; disulfide 1-15, 3-11; ends not checked; UniProt P05305 53-73, looked up) [ET-1, hypertrophic stimulus, GPCR agonist, purchased from Sigma-Aldrich]
expression of hypertrophy-specific genes (ANP, β-MHC) after stimulus: increased gene expression
